These results are taken from US8911725B2, “Co-targeting of aurora A kinase and LIM kinase 1 for cancer therapy” (University of Central Florida Research Foundation, Inc., priority 2010, dated 2014).

Type in all cases: cell-based
The test system of data set [1] is PC3 cells. In words: Immunofluorescence of spindle structure after LIMK1 shRNA transfection, spindle abnormalities counted. From the text:
FIG. 7 A: PC3 cells were transfected with either LIMK1 or control shRNA. In control shRNA transfected cells, distinct localization of pAurKA (green) at the spindle poles (red) could be noted. […] PC3 cells were transfected with either LIMK1 or control shRNA and spindle abnormalities were quantified by counting 50 cells per treatment.

The subject of data set [2] is PC3 cells. The data set can be described thus: Cell proliferation by MTS assay, MLN8237 with LIMK1 shRNA or control shRNA. Here is the method:
10 cm dishes were transiently transfected with 6 ug of LIMK1 shRNA or control shRNA. 24 hrs post transfection, untransfected PC3 cells along with the transfected PC3 cells were seeded in 96 well plates in triplicate (5,000 cells/well). 14 hrs after seeding, media was changed to MLN8237 containing media, at concentrations of 0.001 uM, 0.01 uM, and 0.1 uM. After 24 and 48 hours of inhibitor treatment, cell proliferation was measured using MTS assay. MTS reagent was added to each well and allowed to incubate for 3 hrs at 37° C. before reading absorbances. Absorbances were compared against controls.
Background: Tetrazolium dyes change colour on reduction, which living cells bring about.

The test system of data set [3] is PC3 cells. The data set can be described thus: Western blot of LIMK1 and pAurKA after LIMK1 shRNA transfection. To be noted: LIMK1 shRNA versus control shRNA. As to the method: FIG. 6 PC3 cells were transfected with LIMK1 shRNA or control shRNA and the levels of LIMK1 and pAurKA were detected by western blotting using anti-LIMK1 or anti phospho-AurKA antibodies. GAPDH was used as the loading control. The ratio of pAurKA to GAPDH levels was determined by densitometry (left panel).
On the technique in general: A western blot detects proteins with antibodies after separation by electrophoresis.

Data set [4] deals with PC3 cells. In words: Western blot analysis of nuclear extracts for phospho-Histone H3. The following applies: MLN8237 0.01 uM, nuclear extracts from PC3 cells. Here is the method:
(§1) FIG. 8. […] Western blot analysis of nuclear extracts from PC3 cells treated with MLN8237 (0.01 uM). Y-tubulin staining was used as the loading control. […] PC3 and RWPE1 cells were treated with MLN8237 (0.01 uM) MLN8237 for 24, 48, and 72 hr and cell viability was measured by MTT Assay.

The test system of data set [5] is PC3 and RWPE1 cells. The data set can be described thus: Immunofluorescence analysis of cells treated with MLN8237. The following applies: MLN8237 0.01 uM, 24 hr.
Data set [6] concerns PC3 and RWPE1 cells. The data set can be described thus: Cell viability by MTT assay. The following applies: MLN8237 0.01 uM, 24, 48 and 72 hr. As to the method: as §1

Take “AAGGACAAGAGGCTCAACTTCATCACTGA (listed as DNA, chemistry not given here) [LIMK1 shRNA, interfering RNA (shRNA) targeting LIMK1]”: the “number of abnormal spindles” value in the data set with PC3 cells [1] (50 cells counted per treatment) is “increased the number of abnormal spindles”. Also, the “spindle structure (alpha-tubulin staining)” value in the data set on PC3 cells [1] (LIMK1 shRNA versus control shRNA) is recorded as “disorganized spindle structure”. The “number of viable cells compared to control shRNA” value in the data set on PC3 cells [2] (0.001 uM MLN8237, 48 hrs, PC3 cells) was 75%; in the data set on PC3 cells [2] (0.1 uM MLN8237, 48 hrs, PC3 cells), 83%. The “sensitivity to MLN8237 versus control shRNA transfected cells” value in the data set on PC3 cells [2] (PC3 cells, MLN8237 0.001-0.1 uM) is on record as “more sensitivity to MLN8237”. The “sensitivity to AurKA inhibitor versus untransfected PC3 cells treated only with AurKA inhibitor” value in the data set with PC3 cells [2] (normalised to untransfected PC3 cells treated with vehicle (DMSO), 24 and 48 hr) is reported as “increased the sensitivity of the cells to AurKA inhibitor at all concentrations”. Also, the “level of phosphorylated AurKA” value in the data set on PC3 cells [3] is “decreased the level of phosphorylated AurkA”.

As to `COc1cc(Nc2ncc3c(n2)-c2ccc(Cl)cc2C(c2c(F)cccc2OC)=NC3)ccc1C(=O)O` [MLN8237], in the data set on PC3 cells [4], the “levels of phospho-Histone H3 (mitotic arrest)” value is “Increased the Levels of phospho-Histone H3”. Besides, the “sensitivity of untransfected PC3 cells to MLN8237 (MTS)” value with PC3 cells [2] (0.001, 0.01 and 0.1 uM, 24 and 48 hr) is given as “most sensitive to 0.1 uM MLN8237 at 48 hrs”. Also, in the data set with PC3 and RWPE1 cells [5], the “localization of pAurKA and spindle morphology (alpha-tubulin)” value was “mislocalization of pAurKA (green) and improper spindle morphology”; the “localization of pLIMK1 and centrin” value is “diffused staining and mislocalization of pLIMK1 (green) and centrin (red) in the nucleus”. For the same compound, in the data set with PC3 and RWPE1 cells [6], the “cell survival (cell viability, MTT)” value is “Decreased Cell Survival”.
